From patent publication US6818407B2, “Anti-endotoxic antimicrobial cationic peptides and methods of use therfor” (priority 1998, dated 2004)

What was measured:
[1] = tested on: β-lactamase derepressed mutant (H547) of P. aeruginosa; assay: microbe, parasite or virus in culture; type: cell-based; conditions: P. aeruginosa H547
Procedure, shortened: (§1)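 Checkerboard titration in Mueller Hinton broth, peptide against carbenicillin or ciprofloxacin, inoculum 10 μl of 10^−4 dilution of overnight culture, 18-24 h at 37 °C. Combination MIC is the lowest concentration reducing growth >50%. FIC index = A/MIC A + B/MIC B, with ≤~0.5 synergy, 1.0 additivity, >1.0 antagonism.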

[2] = tested on: mutant (Nal B, H744) of P. aeruginosa; assay: microbe, parasite or virus in culture; type: cell-based
Procedure, shortened: as §1

E. coli [3] = assay: MIC, broth microdilution assay in polypropylene microtiter trays; type: cell-based; conditions: average of three separate experiments
Procedure, shortened: (§2)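 Each peptide's inhibitory endpoint is based on optical density: absence of any OD change for the chosen duration defines the minimal inhibitory concentration.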

S. aureus K147 = assay: as above; type: cell-based; conditions: average of three separate experiments
Procedure, shortened: as §2

P. aeruginosa = assay: as above; type: cell-based; conditions: average of three separate experiments
Procedure, shortened: as §2

S. aureus = assay: as above; type: cell-based; conditions: average of three separate experiments
Procedure, shortened: as §2

[4] = tested on: Pseudomonas aeruginosa strain M2; assay: Protection of neutropenic CD-1 mice challenged with Pseudomonas aeruginosa; type: in vivo; design: Survival post bacterial challenge, surviving mice: reference not given here; conditions: for Survival (%) post bacterial challenge: PBS 8
Procedure, shortened: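 Neutropenia induced by three i.p. cyclophosphamide doses ([…], alternate days); mice then infected i.p. with 200-300 organisms/mouse. Peptides (200 µg/mouse = 8 mg/kg) in buffered citrate given i.p. at 30 min (single) or 30 min and 16 hrs (double) post-challenge; PBS control; mean of 2 experiments.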

E. coli [5] = assay: Synergy study (checkerboard titration) with hen white lysozyme; type: cell-based
P. aeruginosa (H103) = assay: as above; type: cell-based
Salmonella typhi = assay: as above; type: cell-based
[6] = cationic peptide concentration, combined with lysozyme
[7] = lysozyme concentration, combined with the peptide

CC[C@H](C)[C@H](NC(=O)CNC(=O)[C@@H](NC(=O)[C@H](CCCCN)NC(=O)[C@H](CCCCN)NC(=O)[C@@H](NC(=O)[C@H](Cc1ccccc1)NC(=O)[C@H](CCCCN)NC(=O)[C@H](CCCCN)NC(=O)[C@H](Cc1c[nH]c2ccccc12)NC(=O)[C@@H](N)CCCCN)[C@@H](C)CC)[C@@H](C)CC)C(=O)NCC(=O)N[C@@H](C)C(=O)N[C@H](C(=O)N[C@@H](CC(C)C)C(=O)N[C@@H](CCCCN)C(=O)N[C@H](C(=O)N[C@@H](CC(C)C)C(=O)N[C@H](C(=O)N[C@H](C(=O)NCC(=O)N[C@@H](CC(C)C)C(=O)N1CCC[C@H]1C(=O)N[C@@H](C)C(=O)N[C@@H](CC(C)C)C(=O)N[C@@H](CCCCN)C(=O)N[C@@H](CC(C)C)C(=O)N[C@H](C(=O)N[C@@H](CCCCN)C(=O)N[C@@H](CCCCN)C(=O)O)[C@@H](C)O)[C@@H](C)O)[C@@H](C)O)C(C)C)C(C)C [CPα2]
(B) MIC of Carb when combined with peptide ([1]; Carbenicillin with peptide at concentration (A)): 32 µg/mL | FIC index ([1]; peptide + Carbenicillin, about 0.5 or less synergy, 1.0 additivity, >1.0 antagonism): 1.0 | MIC A MIC of Peptides ([1]; peptide alone): 2 µg/mL | (A) Peptide doses together with Carb ([1]; peptide concentration in combination with Carbenicillin): 1 µg/mL | (B) MIC of Cipro when combined with peptide ([2]; ciprofloxacin with peptide at concentration (A), Nal B, H744): .125 µg/mL | FIC index ([2]; peptide + ciprofloxacin, Nal B, H744): .75 | MIC A MIC of Peptides ([2]; peptide alone, P. aeruginosa mutant Nal B, H744 (Table 5)): 2 µg/mL | (A) Peptide doses together with Cipro ([2]; peptide concentration in combination with ciprofloxacin, Nal B, H744): 1 µg/mL | MIC E. coli (E. coli [3]): 2 µg/mL | MIC S. aureus K147 (S. aureus K147): 16 µg/mL | MIC P. aeruginosa (P. aeruginosa): 6 µg/mL | MIC S. aureus (S. aureus): 16 µg/mL | Survival post bacterial challenge, surviving mice ([4]; double dose (200 μg per mouse i.p. at 30 min and 16 hrs), 16 hr): 13 | Survival post bacterial challenge, surviving mice ([4]; double dose, 24 hr): 13 | Survival post bacterial challenge, surviving mice ([4]; double dose, 41 hr): 12 | Survival post bacterial challenge, surviving mice ([4]; double dose, 48 hr): 9 | Survival post bacterial challenge, surviving mice ([4]; double dose, 64 hr): 6 | Survival (%) post bacterial challenge ([4]; double dose, 64 hr): 46% | Survival post bacterial challenge, surviving mice ([4]; double dose, 72 hr): 6 | Survival (%) post bacterial challenge ([4]; double dose, 72 hr): 46% | Survival post bacterial challenge, surviving mice ([4]; double dose, 96 hr): 5 | Survival (%) post bacterial challenge ([4]; double dose, 96 hr): 38% | Survival post bacterial challenge, surviving mice ([4]; single dose (200 μg per mouse i.p. at 30 min), 16 hr): 15 | Survival post bacterial challenge, surviving mice ([4]; single dose, 24 hr): 15 | Survival post bacterial challenge, surviving mice ([4]; single dose, 41 hr): 13 | Survival post bacterial challenge, surviving mice ([4]; single dose, 48 hr): 13 | Survival post bacterial challenge, surviving mice ([4]; single dose, 64 hr): 13 | Survival (%) post bacterial challenge ([4]; single dose, 64 hr): 86% | Survival post bacterial challenge, surviving mice ([4]; single dose, 72 hr): 12 | Survival (%) post bacterial challenge ([4]; single dose, 72 hr): 80% | Survival post bacterial challenge, surviving mice ([4]; single dose, 96 hr): 12 | Survival (%) post bacterial challenge ([4]; single dose, 96 hr): 80% | FIC for combination of cationic peptide and lysozyme (E. coli [5]): 0.31 | Lowest [CP] showing synergy (E. coli [5]; [6]): 0.65 µg/mL | Lowest [Lyso] showing synergy (E. coli [5]; [7]): 7.8 µg/mL | FIC for combination of cationic peptide and lysozyme (P. aeruginosa (H103)): 0.56 | Lowest [CP] showing synergy (P. aeruginosa (H103); [6]): 10.4 µg/mL | Lowest [Lyso] showing synergy (P. aeruginosa (H103); [7]): 62.5 µg/mL | FIC for combination of cationic peptide and lysozyme (Salmonella typhi): 0.63 | Lowest [CP] showing synergy (Salmonella typhi; [6]): 2.61 µg/mL | Lowest [Lyso] showing synergy (Salmonella typhi; [7]): 125 µg/mL
